Measurements from ChEMBL document CHEMBL1133582, “Water-soluble phosphate prodrugs of 1-propargyl-8-styrylxanthine derivatives, A(2A)-selective adenosine receptor antagonists” (J Med Chem, 2000).

Experiments:
Adenosine receptor A2b = target: T1, Adenosine receptor A2b (Homo sapiens, UniProt P29275); assay: Inhibition of NECA-induced stimulation of adenylate cyclase at human adenosine A2B receptor; type: functional
T1 sequence (P29275 whole entry): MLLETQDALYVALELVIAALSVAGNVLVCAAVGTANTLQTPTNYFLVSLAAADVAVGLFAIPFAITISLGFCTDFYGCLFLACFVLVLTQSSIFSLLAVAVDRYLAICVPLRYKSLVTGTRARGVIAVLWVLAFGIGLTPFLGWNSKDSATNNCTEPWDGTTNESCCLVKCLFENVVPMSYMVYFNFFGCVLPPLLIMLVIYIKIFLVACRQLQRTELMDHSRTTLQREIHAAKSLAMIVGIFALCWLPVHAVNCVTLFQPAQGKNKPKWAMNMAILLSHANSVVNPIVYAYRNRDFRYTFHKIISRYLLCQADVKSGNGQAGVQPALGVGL

Adenosine receptor A3 = target: T2, Adenosine receptor A3 (Homo sapiens, UniProt P0DMS8); assay: Binding affinity against human adenosine A3 receptor in CHO cell membranes using [3H]NECA
T2 sequence (P0DMS8 whole entry): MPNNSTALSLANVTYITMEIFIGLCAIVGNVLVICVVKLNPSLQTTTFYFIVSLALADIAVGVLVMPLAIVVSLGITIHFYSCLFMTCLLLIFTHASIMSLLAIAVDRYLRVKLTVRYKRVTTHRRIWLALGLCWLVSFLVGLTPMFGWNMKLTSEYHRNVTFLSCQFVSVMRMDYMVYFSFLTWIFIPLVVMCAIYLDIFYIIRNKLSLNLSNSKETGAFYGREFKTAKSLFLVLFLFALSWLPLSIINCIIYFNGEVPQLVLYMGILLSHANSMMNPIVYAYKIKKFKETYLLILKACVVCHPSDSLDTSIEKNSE

Adenosine receptor A2a [1] = target: Adenosine receptor A2a (Rattus norvegicus, UniProt P30543); assay: Binding affinity against adenosine A2A receptor of rat brain striatal membranes using [3H]CGS-21680
Sequence of Adenosine receptor A2a (Rattus norvegicus, UniProt P30543) (P30543 whole entry): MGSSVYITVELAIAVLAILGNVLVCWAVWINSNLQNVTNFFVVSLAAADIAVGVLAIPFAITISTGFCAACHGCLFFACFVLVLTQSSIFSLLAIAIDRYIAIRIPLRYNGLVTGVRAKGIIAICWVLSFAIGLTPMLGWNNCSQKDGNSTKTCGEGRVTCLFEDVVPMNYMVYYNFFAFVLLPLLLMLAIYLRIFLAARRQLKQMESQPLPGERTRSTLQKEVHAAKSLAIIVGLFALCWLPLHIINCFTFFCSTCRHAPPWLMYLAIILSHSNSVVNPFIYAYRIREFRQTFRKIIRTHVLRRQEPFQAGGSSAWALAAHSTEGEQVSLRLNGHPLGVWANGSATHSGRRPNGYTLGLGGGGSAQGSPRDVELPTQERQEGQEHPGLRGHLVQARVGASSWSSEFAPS

Adenosine receptor A1 [2] = target: T3, Adenosine receptor A1 (Rattus norvegicus, UniProt P25099); assay: Binding affinity against adenosine A1 receptor of rat brain cortical membranes using [3H]CHA
T3 sequence (P25099 whole entry): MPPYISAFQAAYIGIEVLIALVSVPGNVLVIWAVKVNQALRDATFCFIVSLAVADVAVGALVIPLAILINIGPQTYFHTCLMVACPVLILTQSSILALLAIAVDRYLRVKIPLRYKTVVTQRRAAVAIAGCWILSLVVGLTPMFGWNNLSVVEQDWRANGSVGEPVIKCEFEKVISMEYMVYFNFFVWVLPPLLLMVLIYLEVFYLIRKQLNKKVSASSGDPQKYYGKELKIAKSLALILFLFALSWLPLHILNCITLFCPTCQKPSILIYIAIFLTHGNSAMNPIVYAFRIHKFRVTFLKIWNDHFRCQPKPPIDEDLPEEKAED

Adenosine receptor A1 [3] = target: T3, Adenosine receptor A1; assay: Binding affinity against adenosine A1 receptor of rat without and after pre-incubation with alkaline phosphatase
Adenosine receptor A2a [4] = target: T4, Adenosine receptor A2a (Homo sapiens, UniProt P29274)
T4 sequence (P29274 whole entry): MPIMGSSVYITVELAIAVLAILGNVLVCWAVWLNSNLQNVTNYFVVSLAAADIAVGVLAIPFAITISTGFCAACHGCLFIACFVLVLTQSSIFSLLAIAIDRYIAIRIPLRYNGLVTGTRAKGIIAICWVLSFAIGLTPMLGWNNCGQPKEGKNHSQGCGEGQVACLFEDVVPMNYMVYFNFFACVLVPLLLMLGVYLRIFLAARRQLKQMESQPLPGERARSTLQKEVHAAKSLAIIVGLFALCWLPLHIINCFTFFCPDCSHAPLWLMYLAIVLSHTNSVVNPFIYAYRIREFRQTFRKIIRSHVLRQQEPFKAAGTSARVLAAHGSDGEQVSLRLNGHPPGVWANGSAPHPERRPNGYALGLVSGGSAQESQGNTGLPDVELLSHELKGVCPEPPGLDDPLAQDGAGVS
Description: Binding affinity against human adenosine A2A receptor using [3H]CGS-21680 (95% confidence)

Adenosine receptor A1 [5] = target: T5, Adenosine receptor A1 (Homo sapiens, UniProt P30542); assay: Binding affinity against human adenosine A1 receptor using [3H]-CCPA (95% confidence)
T5 sequence (P30542 whole entry): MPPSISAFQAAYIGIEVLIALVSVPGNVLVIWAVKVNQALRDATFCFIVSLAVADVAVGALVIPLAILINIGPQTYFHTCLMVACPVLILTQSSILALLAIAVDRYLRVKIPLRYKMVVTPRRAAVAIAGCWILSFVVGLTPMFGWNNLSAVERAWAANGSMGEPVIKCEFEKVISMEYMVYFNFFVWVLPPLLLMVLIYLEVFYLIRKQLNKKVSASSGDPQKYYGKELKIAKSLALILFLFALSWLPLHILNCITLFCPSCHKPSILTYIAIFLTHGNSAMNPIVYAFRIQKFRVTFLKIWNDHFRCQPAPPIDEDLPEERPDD

Adenosine receptor A2a [6] = target: T4, Adenosine receptor A2a; remark: listed apart in the source
Description: Binding affinity against human post-mortem brain adenosine A2A receptor using nuclei caudati and [3H]-CGS-21,680

Row | Ki (Adenosine receptor A2a [1]) | Ki (Adenosine receptor A1 [2]) | Compound | further results
1 | 39 nM | 1040 nM | C#CCn1c(=O)c2c(nc(/C=C/c3cccc(OC)c3)n2C)n(CCO)c1=O | –
2 | 13 nM | 625 nM | C#CCn1c(=O)c2c(nc(/C=C/c3cccc(Br)c3)n2C)n(CCCO)c1=O | –
3 | 25 nM | 1280 nM | C#CCn1c(=O)c2c(nc(/C=C/c3cccc(Br)c3)n2C)n(CCO)c1=O | –
4 | 8 nM | 900 nM | C#CCn1c(=O)c2c(nc(/C=C/c3cccc(OC)c3)n2C)n(CCCO)c1=O | Ki (Adenosine receptor A2a [4]): 5 nM; Ki (Adenosine receptor A1 [5]): 2500 nM; Ki (Adenosine receptor A2b): > 10000 nM; Ki (Adenosine receptor A2a [6]): 15 nM; Ki (Adenosine receptor A3): > 10000 nM

Further lines, the compound ahead of its results:

Row | Compound | Ki (Adenosine receptor A2a [1]) | Ki (Adenosine receptor A1 [2]) | further results
5 | C#CCn1c(=O)c2c(nc(/C=C/c3cccc(Br)c3)n2C)n(C)c1=O | – | – | Ki (Adenosine receptor A2b): > 10000 nM; Ki (Adenosine receptor A3): > 10000 nM
6 | C#CCn1c(=O)c2c(nc(/C=C/c3cccc(OC)c3)n2C)n(C)c1=O | 12 nM | 1280 nM | –
7 | C#CCn1c(=O)c2c(nc(/C=C/c3cccc(O)c3)n2C)n(C)c1=O | 21 nM | 940 nM | –
8 | C#CCn1c(=O)c2c(nc(/C=C/c3cccc(OC)c3)n2C)n(CCCOP(=O)(O)O)c1=O | – | – | Ki (Adenosine receptor A1 [3]): 1120 nM
9 | C#CCn1c(=O)c2c(nc(/C=C/c3cccc(N)c3)n2C)n(C)c1=O | 42 nM | 1070 nM | –
